In patent US12150940B2, “WASp-protecting small molecules, compositions, methods and uses thereof in the treatment of innate and acquired immune-related disorders or conditions” (BAR ILAN UNIVERSITY, priority 2016, dated 2024):
Peptide text beside a SMILES is read from it. * marks the point of attachment. Cbz = O=C(OCc1ccccc1)*

Columns and labels:
Jurkat T cells = test: Lymphocyte activation in Jurkat T cells (CD69 and activated LFA-1, flow cytometry); assay type: cell-based, human; details: Jurkat T cells stimulated with PMA and Ionomycin, vs control
Experimental: FIGS. 9A and 9B, show 1×10^6 Jurkat T cells/ml, stimulated with PMA and Ionomycin, were treated with WASp-binding SMC #6 or control. After incubation, the cells were stained with anti-activated LFA-1 antibody (KIM127), followed by staining with Alexa488-Fluor goat anti-mouse IgG1 secondary antibody (FIG. 9B). Cells were co-stained with PE-Cy5™-conjugated mouse anti-human CD69 and lymphocyte activation was measured by flow-cytometry as described in the Experimental procedures (FIG. 9A). Histograms of negative control versus SMC #6 are presented.
PBMCs or Jurkat cells (about 3×10^5 cells) were incubated for 4 h, at 37° C. with 50 ng/ml PMA and 250 ng/ml lonomycin, or 40 ng/ml PMA and 6 μM Ionomycin, respectively, or left untreated. After incubation, the cells were collected and stained with 1 μg/ml anti-active human LFA-1 antibody (purified from KIM127 hybridoma sup, ATCC Cat #: CRL-2838, Sigma) for 30 min in 37° C., followed by staining with Alexa488-Fluor goat anti-mouse IgG1 secondary antibody (Molecular Probes, Cat #: A-21121), 30 min on ice. Cells were then co-stained with PE-Cy5™-conjugated mouse anti-human CD69 (BD Pharmingen, Cat #: 555532) to measure lymphocyte activation.
Once activated, lymphocytes proliferate to effectively amplify the immune response. […]

WASp = WASp ubiquitylation in Meg-01 cells (immunoprecipitation, anti-ubiquitin blot); assay type: cell-based, human; details: Meg-01 cells after activation, treated vs untreated
Experimental: Freshly-isolated platelets were stimulated with 10 μM of TRAP-6 for the indicated time points, followed by lysis. WIP (FIG. 7A) or WASp (FIG. 7B) were immunoprecipitated from the lysates and analyzed by western blot for co-immunoprecipitation, using anti-WASp, anti-WIP or anti-PKCθ antibodies. WASp immunoprecipitates were immunoblotted for WASp ubiquitylation using anti-ubiquitin (Ub) antibody (FIG. 7C). Ubiquitylated WASp appears as a smear of bands above the MW of 65 kDa with a prominent band at ˜81 kDa. […] Blots are representative of three independent experiments. Meg-01 megakaryocyte cell line was activated in the presence (+) or absence (−) of MG132, followed by lysis (FIG. 7E). WASp ubiquitylation was determined by co-immunoprecipitation analysis as in FIG. 7C. […] PKCθ and WASp protein expression levels were analyzed by western blot with anti-PKCθ and anti-WASp antibodies, and with anti-GAPDH as loading control. Relative protein expression was determined by densitometric analysis and is presented below the corresponding lanes. […]
Insufficient WASp expression in platelets and megakaryocytes is the cause of microthrombocytopenia of WAS/XLT patients (Albert et al 2010, Lutskiy et al, 2007). […] Similarly, reciprocal co-precipitation was detected between WASp and WIP during the first two minutes of activation when WASp was immunoprecipitated (FIG. 7B). […]

Row | Compound | lymphocyte activation (CD69, activated LFA-1) (Jurkat T cells) | WASp ubiquitylation (WASp)
1 | CC(=O)N[C@H]1C[C@@H](c2ccc3c(c2)nnn3C)O[C@@H](c2ccc(Cl)cc2)C1 [SMC #6, N-[(2R,4R,6S)-2-(4-chlorophenyl)-6-(1-methylbenzotriazol-5-yl)oxan-4-yl]acetamide] | upregulation | –
2 | CC(C)C[C@@H](C=O)NC(=O)[C@H](CC(C)C)NC(=O)[C@H](CC(C)C)NC(=O)OCc1ccccc1 [MG132] (Cbz-Leu-Leu-Leu-aldehyde) | – | more intense
